From US20260091147A1, “METHOD FOR DETECTING INNATE IMMUNE ACTION IN VIVO USING GPR84-PET” (The Board of Trustees of the Leland Standford Junior …, priority 2023, published 2026)

Assays:
[1] = Dynamic 60 min PET/CT of healthy mice, whole-brain time activity curve; format: in vivo, mouse
Source text: A transmission scan was acquired to correct for attenuation during image reconstruction. Following PET imaging, mice were transferred to a SOFIE GNEXT PET/CT for CT acquisition. PET/CT data were co-registered and analyzed using Inveon Research Workplace software to generate images and quantify radiotracer uptake in regions of interest (ROIs). A 3D ROI was manually defined for the whole brain using CT data as anatomical reference, then applied to the full dynamic data set to generate a time activity curve (TAC).
(§1) The count densities were averaged for all volumes of interest at each time point to obtain a time-activity curve (TAC). The TACs were normalized to injected dose, as measured by a CRC-15 PET dose calibrator (Capintec Inc.), and expressed as % injected dose per gram (% ID/g), assuming 1 g/mL. CT was performed in GNEXT depth of interaction (DOI) dual-layer detector system. Scintica VivoQuant software was used to visualize radiotracer uptake and define the 3D volumes of interest. 3D maximum intensity projection (MIP) PET/CT images were created using IRW software.
On days 15-16 after EAE induction, mice were catheterized and placed on the 4-mouse scanning bed of the Sofie GNEXT PET/CT scanner.

GPR84 [2] = target: T1, GPR84 (Mus musculus, UniProt Q8CIM5); experiment: Ex vivo biodistribution (gamma counting) of GPR84 tracer in LPS- vs saline-treated mice; conditions: LPS 10 mg/kg
T1 construct: tissue Jackson Laboratories; host or cells: female C57BL/6J mice (LPS, saline, EAE or naive): brain, spinal cord and peripheral organs
Protocol: FIGS. 11A-11B show ex vivo biodistribution and autoradiography. […] At 20 min postinjection, animals were perfused with saline and tissues were collected, weighed, and gamma-counted. […] Statistical analysis was performed using “Unpaired t test with Welch correction”, *=P<0.05. […] Cb=cerebellum, Ctx=cortex, Str=striatum, H=hippocampus, Mb=midbrain, Ob=olfactory bulb, and BS=brain stem.
(§2) To determine KD of GLPG38, a competitive binding assay was performed using a membrane preparation from cells expressing GPR84-Gi in addition to [^3H]G9543, a known GPR84 antagonist. [^11C]GLPG38 was then radiosynthesized via [^11C]methylation of desmethyl precursor using [^11C]methyl iodide. […] Dynamic 60 min PET/CT imaging was performed 24 hr following LPS-administration using [^11C]GLPG38. Subsequently, mice were perfused with PBS to remove blood, and radioactive signal was assessed in CNS and peripheral tissues via gamma counting. Ex vivo autoradiography of sagittal mouse brain sections was conducted to obtain high resolution images of [^11C]GLPG38 binding. To investigate alterations in GPR84 mRNA expression, quantitative polymerase-chain reaction was performed using mouse brain tissue and human monocyte-derived macrophage cells stimulated with LPS 24 hr prior to RNA extraction.

GPR84 [3] = target: T1, GPR84; experiment: Dynamic PET/CT of brain in LPS-induced systemic inflammation vs saline, with or without GLPG1205 block; format: in vivo; conditions: LPS 10 mg/kg, 24 h
Protocol: as §2, §1
A range of doses (0.65, 0.75, and 0.90 mg/kg) of GLPG1205 were used to investigate whether the blocking was dose-dependent. […] GLPG1205 was injected intra-venously 10 min prior to radiotracer injection (n=4).

[4] = tested on: GPR84-positive immune cells; experiment: PET/CT in B16F1 melanoma brain metastasis model, with or without anti-PD-1 and anti-CTLA-4; format: in vivo, mouse; conditions: anti-PD-1 and anti-CTLA-4, day 9
Protocol: Six-to-eight-week-old female C57BL/6 mice were injected subcutaneously with 0.25×10^6 B16F1 melanoma cells on the right flank to generate extracranial tumors. After two days of extracranial tumor inoculation, 5×10^3 B16F1 melanoma cells were stereotactically injected into the striatum. Five days after intracranial tumor inoculation, mice were randomized into treatment (n=4) vs no treatment (n=4) groups based on the intracranial bioluminescence signals and monitored daily starting on day 5 for extracranial tumor volume changes. On days 5, 7 and 9 post-intracranial tumor inoculation, mice in the treatment group were treated with anti-PD-1 and anti-CTLA-4 (200 μg via intraperitoneal injection). T2-weighted MRI (Bruker) with a CryoProbe was performed on day 9 after intracranial tumor inoculation to identify brain tumor region of interest. Following MRI, mice underwent PET/CT imaging on the GNEXT PET/CT (Sofie). 100-125 μCi of [^18F]MGX-110S was injected for a 10-min static PET scan followed by CT. Mice were then perfused and organs of interest were dissected and analyzed via gamma counting. Region of interest analysis of the PET images was performed using a 3D volume drawing mode around the intracranial and extracranial tumors (Inveon Research Workspace).

GPR84 [5] = target: T1, GPR84; experiment: Ex vivo gamma counting of CNS tissues in EAE vs naive mice
Protocol: After the PET/CT scan the mice were perfused under 3% isoflurane and organs of interest were dissected out, weighed, and placed on a Hidex gamma counter to quantify the percent of injected dose per gram of tissue. After gamma counting, CNS tissues were frozen and sectioned on a cryotome at 40 μm and placed on a phosphor storage screen overnight. The images were read using a Typhoon imager 18 h after the screen was exposed to the tissues. Additional mice were also injected off of the PET/CT scanner and perfused at 60-min post-injection to increase the N for the ex vivo gamma counting and autoradiography data.
Radiosynthesis of ^18F-MGX-110S was achieved by copper-mediated fluorination of a Bpin precursor in a mixture of dimethylacetamide at 130° C. for 20 min. C57BL/6 mice were induced with EAE using myelin oligodendrite glycoprotein (MOG35-55) emulsified in complete Freund's adjuvant and weighed/scored daily for disease severity. Expression of Gpr84 and Tspo was assessed in EAE (n=10-16 mice of low and high disease severities) versus naïve mice (n=5) using quantitative polymerase chain reaction (qPCR) of CNS tissues. In vivo kinetics, spatial distribution, and BBB permeability of ^18F-MGX-110S was assessed via 60-min dynamic PET/CT imaging of naïve C57BL/6 (n=3) and high scoring EAE mice (n=3). […]

T1 sequence (Q8CIM5 whole entry): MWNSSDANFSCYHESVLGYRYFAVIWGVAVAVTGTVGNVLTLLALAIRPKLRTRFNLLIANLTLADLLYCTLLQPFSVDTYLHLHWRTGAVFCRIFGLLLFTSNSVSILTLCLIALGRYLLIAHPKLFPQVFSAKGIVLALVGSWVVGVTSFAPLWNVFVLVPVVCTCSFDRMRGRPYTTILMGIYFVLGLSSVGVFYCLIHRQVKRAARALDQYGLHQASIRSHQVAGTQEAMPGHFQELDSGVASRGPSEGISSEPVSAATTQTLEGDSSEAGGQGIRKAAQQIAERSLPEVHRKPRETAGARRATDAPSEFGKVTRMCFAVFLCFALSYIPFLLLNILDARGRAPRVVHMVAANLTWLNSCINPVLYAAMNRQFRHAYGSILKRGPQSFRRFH

| time of peak brain uptake ([1]; naive mice, n=3) [min] | signal-to-background ratio (EAE-to-naive) in lumbar spinal cord relative to 18F-GE180 (GPR84 [5]; 60 min post injection) [fold] | tracer binding in cervical/thoracic and lumbar spinal cord, EAE vs naive (GPR84 [5]; both p<0.01) | SMILES | whole-brain uptake after washout, end of 60 min scan ([1]; healthy mice) [% ID/g] | whole-brain uptake at 4 minutes post injection ([1]; naive wild-type mice) [% ID/g] | gamma counting signal in brain, LPS-injected vs vehicle mice (GPR84 [2]; p=0.0023) | gamma counting tracer binding in adipose tissue, LPS vs vehicle mice (GPR84 [2]; p=0.007) | brain PET signal in LPS-treated vs saline-treated mice at 40-60 min post injection (GPR84 [3]) | PET signal in intracranial tumor, untreated vs immunotherapy-treated mouse [4] |
| --- | --- | --- | --- | --- | --- | --- | --- | --- | --- |
|  |  |  | Cc1cc2c(cc1O[11CH3])CCn1c-2c(C)c(OC[C@@H]2COCCO2)cc1=O [[^11C]GLPG38] | 3.53 | 9.46 | increased signal in the brain | significant increase in tracer binding | significantly elevated |  |
| 0.25 | 2.5 | significantly elevated tracer binding | O=c1nc(OC[C@@H]2COCCO2)cc2n1CCc1cc([18F])ccc1-2 [^18F-MGX-110S] |  |  |  |  |  | significantly elevated signal |
